The values below come from US4474775A, “Pyrazol-4-yl phosphates and insecticidal and acaricidal use” (priority 1979, dated 1984).

In one data set the test system is Tetranychus urticae. Put plainly: Effectiveness against Tetranychus urticae (Testing Example 4). It counts as in vivo. The conditions noted are these: decrease rate grade, 500 ppm spray on kidney bean plant, 2nd day after spraying. The method, then:
Testing Example 4: Effectiveness against Tetranychus urticae
A test compound was processed into an emulsifiable concentrate in accordance with the formulation of Example 6, and diluted with water (with Dyne®, spreading agent, as diluted 3000-fold) to prepare a 500 ppm aqueous solution. Ten female adults of Tetranychus urticae) were infected on the seedling of a kidney bean plant water-cultured in a polyethylene cup, and the cups were placed in a glass chamber (28° C.) for 24 hours, followed by spraying 20 ml of the aqueous solution on the kidney bean plant. After the sprayed cup was placed again in the glass chamber, the number of the adults and larvae living on the leaves was counted on the 2nd and 7th days after spraying. The test was repeated twice, and the test results are tabulated in Table 5 in terms of the efficacy grading as determined by calculating a decrease rate by the following equation:
Decrease rate (%)=[(number of mites tested-number of larvae living on the day of inspection)/(number of mites tested)]×100
On to `CCOP(=S)(OCC)Oc1cnn(-c2ccccc2C)c1` [compound 21], for which the “Efficacy grading, 2nd day” value is 3 (Not less than 90).
On to `CCCSP(=O)(OCC)Oc1cnn(-c2ccc(C)cc2)c1` (stereo not shown) [compound 23], for which the “Efficacy grading, 2nd day” value was 3 (Not less than 90).
With `CCCSP(=S)(OCC)Oc1cnn(-c2ccc(Cl)cc2Cl)c1` (stereo not shown) [compound 30], the “Efficacy grading, 2nd day” value is reported as 3 (Not less than 90).
With `CCCSP(=S)(OCC)Oc1cnn(-c2ccc(Cl)c(Cl)c2)c1` (stereo not shown) [compound 32], the “Efficacy grading, 2nd day” value is on record as 3 (Not less than 90).
With `CCCSP(=O)(OCC)Oc1cnn(-c2c(C)cccc2C)c1` (stereo not shown) [compound 36], the “Efficacy grading, 2nd day” value is 3 (Not less than 90).
In the case of `CCCSP(=O)(OCC)Oc1cnn(-c2ccc(Cl)cc2C)c1` (stereo not shown) [compound 38], the “Efficacy grading, 2nd day” value was 3 (Not less than 90).
With `CCCSP(=O)(OCC)Oc1cnn(-c2ccc3c(c2)OCO3)c1` (stereo not shown) [compound 41], the “Efficacy grading, 2nd day” value is 3 (Not less than 90).

Still in this data set, the particulars now being: decrease rate grade, 500 ppm spray on kidney bean plant, 7th day after spraying.
Consider `CCOP(=S)(OCC)Oc1cnn(-c2ccccc2C)c1` [compound 21], for which the “Efficacy grading, 7th day” value is 0 (Not more than 20).
On to `CCCSP(=O)(OCC)Oc1cnn(-c2ccc(C)cc2)c1` (stereo not shown) [compound 23], for which the “Efficacy grading, 7th day” value is 3 (Not less than 90).
For `CCCSP(=S)(OCC)Oc1cnn(-c2ccc(Cl)cc2Cl)c1` (stereo not shown) [compound 30], the “Efficacy grading, 7th day” value is recorded as 3 (Not less than 90).
With `CCCSP(=S)(OCC)Oc1cnn(-c2ccc(Cl)c(Cl)c2)c1` (stereo not shown) [compound 32], the “Efficacy grading, 7th day” value was 3 (Not less than 90).
As for `CCCSP(=O)(OCC)Oc1cnn(-c2c(C)cccc2C)c1` (stereo not shown) [compound 36], the “Efficacy grading, 7th day” value is reported as 3 (Not less than 90).
Same read-out and setting: then `CCCSP(=O)(OCC)Oc1cnn(-c2ccc(Cl)cc2C)c1` (stereo not shown) [compound 38], with 3 (Not less than 90); and `CCCSP(=O)(OCC)Oc1cnn(-c2ccc3c(c2)OCO3)c1` (stereo not shown) [compound 41], with 3 (Not less than 90).

The test system of the next data set is Spodoptera litura. In words: Effectiveness against Spodoptera litura (Testing Example 2). The conditions noted are these: second-instar larvae, 500 ppm spray on soybean, 28° C., 24 hours. It is filed as in vivo. On the procedure: Testing Example 2: Effectiveness against Spodoptera litura
Twenty milliliters of a 500 ppm, water-diluted solution (with Dyne® Takeda Chem. Ind. Ltd., spreading agent, as diluted 3000-fold) of the test compound (the emulsifiable concentrate of Example 6) was sprayed on grown seedlings (10 days after germination) of soybean plant water-cultured in a polyethylene cup by the use of a spray gun (nozzle pressure of 1 kg/cm^2 gauge) in a spraying chamber. 2 hours after spraying, two main leaves of soybean plant were cut off and were placed into two cups (6 cm in diameter and 4 cm in depth), respectively, and ten second-instar larvae of Spodoptera litura were liberated. The cups were left in the room (28° C.) for 24 hours, and the dead larvae were counted.
In general, mortality refers to the share of the test organisms that died. Turning to `CCCSP(=O)(OCC)Oc1cnn(-c2ccc(C)cc2)c1` (stereo not shown) [compound 23], the mortality at 500 ppm is 100%.
The same measure, in the same setting: then `CCCSP(=O)(OCC)Oc1cnn(-c2ccc(SC)cc2)c1` (stereo not shown) [compound 26], with 100%; and `CCCSP(=O)(OCC)Oc1cnn(-c2cccc(C(F)(F)F)c2)c1` (stereo not shown) [compound 27], with 100%; and `CCCSP(=S)(OCC)Oc1cnn(-c2cccc(C(F)(F)F)c2)c1` (stereo not shown) [compound 28], with 100%.
On the same count and under the same terms, then `CCCSP(=S)(OCC)Oc1cnn(-c2ccc(Cl)cc2Cl)c1` (stereo not shown) [compound 30], with 100%; and `CCCSP(=S)(OCC)Oc1cnn(-c2ccc(Cl)c(Cl)c2)c1` (stereo not shown) [compound 32], with 100%; and `CCCSP(=O)(OCC)Oc1cnn(-c2c(C)cccc2C)c1` (stereo not shown) [compound 36], with 100%.
Still for that read-out and setting: for `CCCSP(=O)(OCC)Oc1cnn(-c2ccc(Cl)cc2C)c1` (stereo not shown) [compound 38] the value was 100%; for `CCCSP(=O)(OCC)Oc1cnn(-c2cc([N+](=O)[O-])ccc2C)c1` (stereo not shown) [compound 39], 100%.
For the compound `CCCSP(=S)(OCC)Oc1cnn(-c2cc([N+](=O)[O-])ccc2C)c1` (stereo not shown) [compound 40], the mortality at 500 ppm amounted to 100%.
Still for that read-out and setting: then `CCCSP(=O)(OCC)Oc1cnn(-c2ccc3c(c2)OCO3)c1` (stereo not shown) [compound 41], with 100%.

Tested on in the next data set: not listed separately
In words: Oral acute toxicity in mice (Toxicological Test). The settings on record: mouse, in vivo, five-week aged ddY-SLC strained male mice. From the text:
Below tabulated are the oral acute toxicity values obtained with five-week aged, ddY-SLC strained male mice: […]
By LD50 is commonly meant the dose expected to kill half of the subjects tested. As to `CCCOP(=S)(OCC)Oc1cn(-c2ccccc2)nc1C(=O)OCC` (stereo not shown) [compound 6], the LD50 was above 300 mg/kg.
Still for that read-out and setting: then `CCOP(=S)(OCC)Oc1cnn(-c2ccccc2C)c1` [compound 21], with above 300 mg/kg.
The same measure, in the same setting: for `CCCSP(=O)(OCC)Oc1cnn(-c2ccc(C)cc2)c1` (stereo not shown) [compound 23] the value was 50 to 300 mg/kg; for `CCCSP(=O)(OCC)Oc1cnn(-c2ccc(SC)cc2)c1` (stereo not shown) [compound 26], above 300 mg/kg.
Same read-out and setting: then `CCCSP(=O)(OCC)Oc1cnn(-c2cccc(C(F)(F)F)c2)c1` (stereo not shown) [compound 27], with 50 to 300 mg/kg; and `CCCSP(=S)(OCC)Oc1cnn(-c2cccc(C(F)(F)F)c2)c1` (stereo not shown) [compound 28], with above 300 mg/kg; and `CCCSP(=S)(OCC)Oc1cnn(-c2ccc(Cl)cc2Cl)c1` (stereo not shown) [compound 30], with above 300 mg/kg.
For the compound `CCCSP(=S)(OCC)Oc1cnn(-c2ccc(Cl)c(Cl)c2)c1` (stereo not shown) [compound 32], the median lethal dose (LD50) is above 300 mg/kg.
Same read-out and setting: for `CCCSP(=O)(OCC)Oc1cnn(-c2c(C)cccc2C)c1` (stereo not shown) [compound 36] the value was above 300 mg/kg; for `CCCSP(=O)(OCC)Oc1cnn(-c2ccc(Cl)cc2C)c1` (stereo not shown) [compound 38], above 300 mg/kg; for `CCCSP(=O)(OCC)Oc1cnn(-c2cc([N+](=O)[O-])ccc2C)c1` (stereo not shown) [compound 39], above 300 mg/kg.
Turning to `CCCSP(=S)(OCC)Oc1cnn(-c2cc([N+](=O)[O-])ccc2C)c1` (stereo not shown) [compound 40], the LD50 was above 300 mg/kg.
Still for that read-out and setting: then `CCCSP(=O)(OCC)Oc1cnn(-c2ccc3c(c2)OCO3)c1` (stereo not shown) [compound 41], with 50 to 300 mg/kg.

A further data set relates to Laodelphax striatellus. In words: Effectiveness against Laodelphax striatellus, adults, dust on paddy-rice plant (Testing Example 1 (b)). It counts as in vivo. The conditions noted are these: small brown planthopper, adults on dusted rice, 24 h. On the procedure: (§1) Testing Example 1: Effectiveness against Laodelphax striatellus
(b) A test compound was processed into a dust preparation in accordance with the formulation of Example 8, and […] of the preparation was dusted on the potted paddy-rice plant (1/5,000 a) by the Berger Duster method. After dusting, leaves (15 cm long) of the paddy rice were cut off and were placed in a test tube containing 1 ml of water in the bottom, and ten adults of Laodelphax striatellus were released therein. After allowing the test tube to stand in the room (28° C.) for 24 hours, the dead insects were counted.
Regarding `CCCOP(=S)(OCC)Oc1cn(-c2ccccc2)nc1C(=O)OCC` (stereo not shown) [compound 6], the “Mortality (II)” value is 70%.

Another data set has as its system Laodelphax striatellus. Put plainly: Effectiveness against Laodelphax striatellus, third-instar larvae, root dip (Testing Example 1 (a)). It is filed as in vivo. The conditions noted are these: 40 ppm emulsifiable concentrate dilution, root dip 2 hours, 28° C., 24 hours, read-out: Mortality (I). The method, then: as §1
(a) A test compound was processed into an emulsifiable concentrate in accordance with the formulation of Example 6, followed by diluting with water to prepare a treating solution of a 40 ppm concentration. 2.5 ml of the treating solution was placed into a test tube (with 1.7 cm of diameter, 4 cm deep), in which three seedlings of a paddy-rice plant (on the 7th day after germination) were allowed to stand so their root portions were dipped into the solution for 2 hours. The seedlings were then transferred into a test tube having 1 ml water placed in the bottom, and ten third-instar larvae of Laodelphax striatellus were released. After allowing the test tube to stand in the room (28° C.) for 24 hours, the dead larvae were counted. The test is repeated twice, and the test results are tabulated, in terms of mortality, in Table 2 (I).
Consider `CCCOP(=S)(OCC)Oc1cn(-c2ccccc2)nc1C(=O)OCC` (stereo not shown) [compound 6], for which the mortality at 40 µg/mL was 97%.
